Source: patent US8765779B2, “Tricyclic derivatives and their pharmaceutical use and compositions” (Cephalon, Inc., priority 2009, dated 2014)
Where a name gives a salt, the structure may show the parent alone.

Target: T1, human 5-HT6 receptor (Homo sapiens, UniProt P50406)
T1 construct: host or cells: CHO-K1 cells, stably transfected; membranes prepared in house
Assay: Human 5-HT6 Receptor Binding Assay ([3H]LSD displacement, scintillation beads)
Conditions: membranes of CHO-K1 cells with recombinant human 5-HT6, 4 nM [3H]LSD; Table 1, class symbols; read-out: h5-HT6 (Ki)
Protocol: Human 5-HT6 Receptor Binding Assay
Membranes were prepared from CHO—K1 cells stably transfected with the human 5-HT6 receptor (Euroscreen; ES-316-C). The cells were grown in Gibco Advanced DMEM-F12 (Cat#12634010) containing 2% dialyzed FBS (Hyclone Cat#SH30079.03). The cells were harvested in phosphate buffered saline (PBS) containing 0.1 mM EDTA and pelleted by centrifugation (1000×g), the supernatant was discarded and the pellets were stored at −80° C. prior to membrane preparation. Membranes were prepared as previously described (J Bio Chem. 1992, 267 (14) 9844-51). Briefly, frozen cell pellet was resuspended in a lysis buffer containing 5 mM Tris-HCl (pH 7.5), 5 mM EDTA and 1 complete EDTA-free protease inhibitor tablet (Roche Applied Science, Indianapolis, Ind.) per 50 mL buffer, and homogenized with a tissue homogenizer. The cell lysate was then centrifuged at 40,000×g for 30 min at 4° C. to collect the membranes. The membrane pellets were washed in membrane buffer (50 mM Tris-HCl (pH 7.5), 0.6 mM EDTA, 5 mM MgCl2, 1 complete EDTA-free protease inhibitor tablet per 50 mL buffer) using a tissue homogenizer. The membranes were centrifuged at 40,000×g for 30 min at 4° C. and the pellets were resuspended in membrane buffer containing 250 mM sucrose, and protein concentration was determined using the Coomassie Plus kit (Pierce Biotechnology, Rockford, Ill.).
Membranes prepared from cells expressing recombinant human 5-HT6 receptor (h5-HT6) were resuspended in assay buffer containing 50 mM Tris HCl, (pH7.4), 4 mM CaCl2, 10 μg/mL saponin, and 0.1% (w/v) ascorbic acid. Membranes were preincubated using 1.75 μg membrane protein and 0.25 mg FlashBlue scintillation beads (PerkinElmer catalogue #FB001) per well at 4° for 30 min. […] Test compounds or assay controls for total and non-specific binding were diluted in DMSO as 100× solutions and serially diluted by half log concentrations on a Perkin Elmer JANUS Automated Workstation. Serotonin (10 μM final concentration) was used to determine non-specific binding in the assay. Plates were read using the Microbeta Trilux 1450 LSC and luminescence counter. Data were analyzed by nonlinear […] using the dose-response equation (variable slope) to calculate IC50 in XLfit4 (ID Business Solutions Inc.): y=(Bottom+((Top−Bottom)/(1+((IC50/x)^Hill slope))))
Ki value was then calculated according to the Cheng-Prusoff method using the equation below (Cheng and Prusoff, 1973): Ki,app=IC50/(1+[radioligand]/Kd))

T1 sequence (P50406 whole entry): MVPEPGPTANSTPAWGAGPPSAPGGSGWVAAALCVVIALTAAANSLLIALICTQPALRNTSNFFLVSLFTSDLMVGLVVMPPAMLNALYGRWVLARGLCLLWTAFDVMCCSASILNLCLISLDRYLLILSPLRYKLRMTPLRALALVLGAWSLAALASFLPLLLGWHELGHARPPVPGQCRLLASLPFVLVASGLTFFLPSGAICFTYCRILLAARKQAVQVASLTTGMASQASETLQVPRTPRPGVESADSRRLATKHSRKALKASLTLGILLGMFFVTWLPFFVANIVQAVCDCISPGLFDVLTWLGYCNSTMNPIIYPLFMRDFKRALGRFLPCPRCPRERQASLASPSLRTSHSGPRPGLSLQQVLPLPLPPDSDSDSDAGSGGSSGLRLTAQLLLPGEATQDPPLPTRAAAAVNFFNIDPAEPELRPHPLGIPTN

Row | Structure (SMILES) | Ki
1 | O=S(=O)(c1ccc(Cl)c(Cl)c1)c1ccc2c(c1)OC1CNCCC21 (stereo not drawn) [Example 120] | < 500 nM
2 | CC(C)(C)c1ccc(S(=O)(=O)Oc2ccc3c(c2)OC2CNCCC32)cc1 (stereo not drawn) [Example 666] | < 500 nM
3 | O=S(=O)(Oc1ccc2c(c1)C1CCNCC1O2)c1ccc(-c2ccccc2)cc1 (stereo not drawn) [Example 743] | < 500 nM
4 | O=S(=O)(c1ccc(Oc2ccccc2)cc1)c1ccc2oc3c(c2c1)CCNC3 [Example 248] | < 500 nM
5 | O=S(=O)(c1ccc(Oc2ccccc2)cc1)c1ccc2c(c1)C1CCNCC1O2 (stereo not drawn) [Example 173] | > 1000 nM
6 | O=[N+]([O-])c1ccc(S(=O)(=O)c2ccc3c(c2)C2CCNCC2O3)cc1 (stereo not drawn) [Example 177] | > 1000 nM
7 | Cc1ccc(S(=O)(=O)Oc2ccc3c(c2)OC2CNCCC32)cc1Cl (stereo not drawn) [Example 659] | > 1000 nM
8 | O=S(=O)(c1ccccc1)c1ccc2c3c(oc2c1)CN(CC(F)(F)F)CC3 [Example 598] | < 500 nM
9 | O=S(=O)(Nc1ccc2c(c1)C1CCNCC1O2)c1c(Cl)nc2sccn12 (stereo not drawn) [Example 818] | < 500 nM
10 | CC12CCNCC1Oc1cc(S(=O)(=O)c3cccc(C(F)(F)F)c3)ccc12 (stereo not drawn) [Example 357] | < 500 nM
11 | O=S(=O)(c1ccc(F)c(F)c1)c1ccc2c(c1)OC1CNCCC21 (stereo not drawn) [Example 128] | < 500 nM
12 | CC(=O)Nc1ccc(S(=O)(=O)c2ccc3oc4c(c3c2)CCNC4)cc1 [Example 272] | 500 to 1000 nM
13 | O=S(=O)(Oc1ccc2c(c1)OC1CN(CCc3ccccc3)CCC21)c1ccc(Cl)cc1 (stereo not drawn) [Example 813] | > 1000 nM
14 | O=S(=O)(Oc1ccc2c(c1)OC1CNCCC21)c1cccc2cnccc12 (stereo not drawn) [Example 684] | 500 to 1000 nM
15 | COc1ccc(S(=O)(=O)c2ccc3c(c2)OC2CNCCC32)cc1 (stereo not drawn) [Example 323] | > 1000 nM
16 | O=S(=O)(c1cccc(F)c1)c1ccc2oc3c(c2c1)CCNC3C1CCOC1 (stereo not drawn) [Example 516] | < 500 nM
17 | O=S(=O)(c1ccccc1)c1ccc2c3c(oc2c1)CN(CCCO)CC3 [Example 595] | < 500 nM
18 | O=S(=O)(c1cccc(OCC(F)F)c1)c1ccc2c(c1)OC1CNCCC21 (stereo not drawn) [Example 578] | < 500 nM
19 | CC1(C)CNC2(CCOC2)c2oc3cc(S(=O)(=O)c4cncc(Cl)c4)ccc3c21 (stereo not drawn) [Example 456] | < 500 nM
20 | CC(C)Oc1cccc(S(=O)(=O)c2ccc3c4c(oc3c2)C(C)(C)NCC4)c1 [Example 15, 1,1-dimethyl-7-{[3-(propan-2-yloxy)phenyl]sulfonyl}-1,2,3,4-tetrahydro[1]benzofuro[2,3-c]pyridine] | < 500 nM

Row | Structure (SMILES) | Ki
21 | CC1(C)NCCc2c1oc1cc(S(=O)(=O)c3cccnc3C(F)(F)F)ccc21 [Example 378] | < 500 nM
22 | CCN1CCC2c3ccc(S(=O)(=O)c4ccccc4)cc3OC2C1 (stereo not drawn) [Example 605] | 500 to 1000 nM
23 | Cc1c(S(=O)(=O)Oc2ccc3c(c2)OC2CNCCC32)sc2ccc(Cl)cc12 (stereo not drawn) [Example 796] | < 500 nM
24 | CC(C)N1CCC2(C)c3cc(OS(=O)(=O)Cc4ccccc4)ccc3OC2C1 (stereo not drawn) [Example 804] | > 1000 nM
25 | CC12CCNCC1Oc1ccc(OS(=O)(=O)c3cc4ccccc4s3)cc12 (stereo not drawn) [Example 773] | < 500 nM
26 | O=S(=O)(c1cc(F)cc(F)c1)c1ccc2c3c(oc2c1)C1(CCOC1)NCC3 (stereo not drawn) [Example 305] | < 500 nM
27 | CC(=O)N1CCc2c(oc3cc(S(=O)(=O)c4ccccc4)ccc23)C1 [Example 614, 1-[7-(Phenylsulfonyl)-3,4-dihydro[1]benzofuro[2,3-c]pyridin-2(1H)-yl]ethanone trifluoroacetate] | < 500 nM
28 | O=S(=O)(c1cc(Cl)cc(Cl)c1)c1ccc2oc3c(c2c1)CCNC3 [Example 262, 6-[(3,5-dichlorophenyl)sulfonyl]-1,2,3,4-tetrahydro[1]benzofuro[2,3-c]pyridine] | < 500 nM
29 | [O-][S+](c1ccc2c(c1)OC1CNCCC21)c1cc(F)cc(F)c1F (stereo not drawn) [Example 385] | > 1000 nM
30 | CC12CCNCC1Oc1ccc(OS(=O)(=O)c3cccc4ccccc34)cc12 (stereo not drawn) [Example 768] | 500 to 1000 nM
31 | O=S(=O)(c1ccccc1)c1ccc2c(c1)C1CCNCC1O2 (stereo not drawn) [Example 337, 6-(phenylsulfonyl)-1,2,3,4,4a,9a-hexahydro[1]benzofuro[2,3-c]pyridine] | > 1000 nM
32 | CC12CCNCC1Oc1cc(S(=O)(=O)c3cccc(OC(F)(F)F)c3)ccc12 (stereo not drawn) [Example 358, 4a-methyl-7-{[3-(trifluoromethoxy)phenyl]sulfo-nyl}-1,2,3,4,4a,9a-hexahydro[1]benzofuro[2,3-c]pyridine] | < 500 nM
33 | O=S(=O)(c1cccc(F)c1)c1ccc2c3c(oc2c1)C1(CCOCC1F)NCC3 (single isomer, unassigned) [Example 54, 3′-Fluoro-7-[(3-fluorophenyl)sulfonyl]-2′,3,3′,4,5′,6′-hexahydro-2H-spiro[1-benzofuro[2,3-c]pyridine-1,4′-pyran]] | < 500 nM
34 | O=S(=O)(Oc1ccc2c(c1)OC1CNCCC21)c1cc(Cl)cc(Cl)c1 (stereo not drawn) [Example 677] | < 500 nM
35 | O=S(=O)(c1cccc(OCCCO)c1)c1ccc2c(c1)OC1CNCCC21 (stereo not drawn) [Example 568] | < 500 nM
36 | O=S(=O)(c1cccc2c1OC1CNCCC21)c1cccc2ccccc12 (stereo not drawn) [Example 184] | < 500 nM
37 | CC(C)COc1cc(F)cc(S(=O)(=O)c2ccc3c(c2)OC2CNCCC32)c1 (stereo not drawn) [Example 414] | < 500 nM
38 | Cc1noc(C)c1S(=O)(=O)Oc1ccc2c(c1)C1CCNCC1O2 (stereo not drawn) [Example 703] | > 1000 nM
39 | O=S(=O)(c1ccc2c(c1)OC1CNCCC21)c1cccnc1Cl (stereo not drawn) [Example 390] | < 500 nM
40 | O=S(=O)(c1ccc2c(c1)OC1CNCCC21)c1cccnc1C(F)(F)F (stereo not drawn) [Example 423] | < 500 nM

Row | Structure (SMILES) | Ki
41 | O=S(=O)(Oc1ccc2c(c1)OC1CNCCC21)c1cccc(Cl)c1Cl (stereo not drawn) [Example 678] | < 500 nM
42 | CC(C)N1CCC2c3ccc(OS(=O)(=O)c4ccc(Cl)cc4)cc3OC2C1 (stereo not drawn) [Example 798, 2-(Propan-2-yl)-1,2,3,4,4a,9a-hexahydro[1]benzofuro[2,3-c]pyridin-7-yl-4-chlorobenzenesulfonate] | > 1000 nM
43 | Cc1cc(S(=O)(=O)c2ccc3c(c2)OC2CNCCC32)ccc1F (stereo not drawn) [Example 137] | < 500 nM
44 | CC(C)c1ccc(S(=O)(=O)c2ccc3oc4c(c3c2)CCNC4)cc1 [Example 259] | < 500 nM
45 | O=S(=O)(c1ccc2c(c1)OC1CNCCC21)c1cccc2cccnc12 (stereo not drawn) [Example 333] | < 500 nM
46 | O=S(=O)(c1cc(F)cc(Cl)c1)c1ccc2oc3c(c2c1)CCNC3 [Example 255] | < 500 nM
47 | O=S(=O)(c1ccc2oc3c(c2c1)CCNC3)c1cc(Cl)ccc1Cl [Example 266, 6-[(2,5-dichlorophenyl)sulfonyl]-1,2,3,4-tetrahydro[1]benzofuro[2,3-c]pyridine] | < 500 nM
48 | O=S(=O)(c1cc(F)cc(F)c1)c1ccc2c3c(oc2c1)C1(CCOCC1)NCC3 [Example 301, 7-[(3,5-difluorophenyl)sulfonyl]-2′,3,3′,4,5′,6′-hexahydro-2H-spiro[1-benzofuro[2,3-c]pyridine-1,4′-pyran]] | < 500 nM
49 | O=S(=O)(c1cccc(Cl)c1)c1ccc2c3c(oc2c1)CN(CC(F)(F)F)CC3 [Example 604] | < 500 nM
50 | COc1cc(OCC2CC2)cc(S(=O)(=O)c2ccc3c(c2)OC2CNCCC32)c1 (stereo not drawn) [Example 585] | < 500 nM
51 | O=S(=O)(c1cccnc1)c1ccc2c3c(oc2c1)CNCC3 [Example 438] | < 500 nM
52 | O=[N+]([O-])c1ccc(S(=O)(=O)Oc2ccc3c(c2)C2CCNCC2O3)cc1 (stereo not drawn) [Example 749] | > 1000 nM
53 | CC12CCNCC1Oc1cc(S(=O)(=O)c3cncc(C(F)(F)F)c3)ccc12 (stereo not drawn) [Example 431] | > 1000 nM
54 | [O-][S+](c1cccc(OC(F)(F)F)c1)c1ccc2c3c(oc2c1)C1(CCOCC1)NCC3 (stereo not drawn) [Example 299, 7-{[3-(trifluoromethoxy)phenyl]sulfi-nyl}-2′,3,3′,4,5′,6′-hexahydro-2H-spiro[1-benzofuro[2,3-c]pyridine-1,4′-pyran]] | < 500 nM
55 | O=S(=O)(Nc1ccc(F)cc1)c1ccc2c(c1)C1CCNCC1O2 (stereo not drawn) [Example 847] | > 1000 nM
56 | O=S(=O)(c1ccc2c(c1)OC1CNCCC21)c1cc(F)cc(F)c1F (stereo not drawn) [Example 386] | < 500 nM
57 | COC(=O)c1cc(Cl)cc(S(=O)(=O)c2ccc3c(c2)OC2CNCCC32)c1 (stereo not drawn) [Example 387] | > 1000 nM
58 | O=S(=O)(c1cccc(Cl)c1)c1ccc2c(c1)OC1CNCCC21 (stereo not drawn) [Example 112] | < 500 nM
59 | O=S(=O)(Cc1cccc(Cl)c1)Oc1ccc2c(c1)C1CCNCC1O2 (stereo not drawn) [Example 752] | > 1000 nM
60 | O=S(=O)(c1ccccc1-c1ccccc1)c1cccc2c1OC1CNCCC21 (stereo not drawn) [Example 191] | < 500 nM
